Starred links: 1 amine or outer side, 2 acyl side, 3 side chain; linkers in the order of their positions; H or OH if unused. Positions of bridges follow the written chain, without caps; N, C: chain ends. Non-standard residues stand in square brackets, D forms with d. Residues, ends and D or L forms follow the SMILES beside them. No end group written: not given here. Trp(2-yl) = O=C([C@H](Cc1c([*:3])[nH]c2ccccc12)N[*:1])[*:2]; {TAMRA} = TAMRA dye attached N-terminally via two o linkers; {Cys} = C-terminal o linker then cysteine amide; Leu(4R-OH,5-OH) = C[C@](O)(CO)C[C@H](N)C(=O)O; cisHyp = O=C(O)[C@@H]1C[C@H](O)CN1

Results on seven compounds are retold here after patent publication US9676823B2, “Selective delivery of molecules into cells or marking of cells in diseased tissue regions using environmentally sensitive transmembrane peptide” (priority 2005, dated 2017).

In data set [1] the test system is HeLa cells. The experiment in a line: Translocation of PNA into HeLa cells (fluorescence microscopy). In kind it is cell-based, human. Particulars: PNA without pHLIP, pH 7.4 or 6.5 (data not shown).
The test system of data set [2] is HeLa cells. The experiment in a line: Translocation and release of Phalloidin-TRITC in HeLa cells (fluorescence microscopy of actin filaments). The format is cell-based, human. The note with it: pH 6.0-7.4, in the presence or absence of peptide (not conjugated). From the text:
To test the ability of pHLIP to translocate peptides across the cell membrane a water soluble cyclic peptide, phalloidin, from the Amanita phalloicles mushroom was chosen. […] Fluorescent phalloidin is commonly used to label actin filaments in permealized cells. Actin filaments stained with fluorescent phalloidin have an easily recognizable filamentous pattern, which cannot be mistaken for the other cellular structures, organelles or membrane staining. Therefore the delivery of fluorescent phalloidin by pHLIP into live cells can easily be verified by fluorescence microscopy. Fluorescently labeled phalloidin (Phalloidin-TRITC) via an S-S bond to the C-terminus of pHLIP was conjugated using a bifunctional cross-linker. Cells were incubated with a pHLIP-S-S-Phalloidin-TRITC cleavable construct at different pHs and subsequently washed with cell culture medium solution, pH 7.4. […]
For the fluorescence microscopy studies, the cells were grown in 35 mm dishes with 10 mm glass bottom windows coated with collagen. […] The medium pH was measured before and after incubation. […] Fluorescent images were taken using an inverted epi-fluorescence microscope Olympus IX71. […] Each time fluorescence microscopy experiments were performed and observed the translocation of cargo by pHLIP, it was verified that the labeled cells were alive by using of dead cell marker SYTOX-Green (Molecular Probes).

A further data set relates to Human tumor MDA-MB-231. The experiment in a line: Whole-body fluorescence imaging of nude mice bearing MDA-MB-231 tumor. The format is in vivo, mouse. The note with it: 100 μl of 50 μM into tail vein, 3 mm tumor; time point not stated. As for the experimental part: To study the pHLIP distribution in vivo, covalently attached to the pHLIP near […] infrared fluorescent dye Cy5.5 was injected into mice bearing tumor and performed whole-body fluorescence imaging. Human tumor MDA-MB-231 was originated by injection of tumor cells (2×10^7 cells/flank/0.2 ml) in the right flank of adult athymic female nude mice. When the tumor reached the size of 3 mm in diameter, 100 μl of 50 μM of Cy5.5 alone or Cy5.5 covalently attached to the pHLIP was given as a single injection into vein tail. The imaging was performed immediately, after 1, 2, 4 hour and next day after 24 hours (FIGS. 9 and 10). The dye and peptide-dye accumulated in liver and kidney, the organs, which usually readily absorb any compounds. The ratios of (liver+kidney)/tumor were 5.9 and 3.6 in mice to which dye alone and pHLIP-dye were injected accumulation for mice. […] The accumulation of pHLIP-Cy5.5 in tumor was in 1.6 times higher than accumulation of dye alone. The ration of (liver+kidney)/tumor was 1.6 and 2.6 for pHLIP-Cy5.5 and Cy5.5 alone, respectively.
Human breast adenocarcinoma MDA-MB-231 (HTB-26, ATCC) cells was cultured in Leibovitz's L-15 medium supplemented with 10% fetal bovine serum, 100 units/ml penicillin, 0.1 mg/ml streptomycin, 2 mM glutamine in humidified atmosphere of 5% CO2 and 95% air at 37° C. […]

Data set [3] deals with HeLa cells. The experiment in a line: pH-dependent delivery of dansyl dye into live HeLa cells (fluorescence microscopy). In kind it is cell-based, human. The note with it: dye alone, without peptide. The procedure:
pHLIP conjugated via a disulfide bond to dansyl dye (FIG. 3a) was tested for delivery of the dye into live HeLa cells at different pHs (FIG. 3b). The cells were incubated with the fluorescently-labeled peptide for 15 min at pH 5.5, 6.5, 7.0 or 7.4 and then washed at pH 7.4 to remove any reversibly bound peptide. […] The relative uptakes were 18%, 48%, 78% and 100% at pH7.4, 7.0, 6.5 and pH5.5, respectively.
For the fluorescence microscopy studies, the cells were grown in 35 mm dishes with 10 mm glass bottom windows coated with collagen. Cells were washed with PBS buffer containing 1 mM CaCl2 and 1 mM MgCl2 with pH 5.5, 6.5, 7.0 or 7.4 and then incubated in PBS at the experimental pH in the absence or presence of varied concentrations (0.1-7 μM) of the pHLIP-S-S-dansyl, pHLIP-dye (TexasRed or Rhodamine), pHLIP-S-S-Phalloidin-TRITC, pHLIP-Phalloidin-TRITC or pHLIP-S-S-PNA-TAMRA constructs. The medium pH was measured before and after incubation. The time of incubation was varied from 15 to 60 min. […] Fluorescent images were taken using an inverted epi-fluorescence microscope Olympus IX71. […] Each time fluorescence microscopy experiments were performed and observed the translocation of cargo by pHLIP, it was verified that the labeled cells were alive by using of dead cell marker SYTOX-Green (Molecular Probes).

The next data set deals with mice. The experiment in a line: Toxicity study in mice, single intravenous injection. The format is in vivo, mouse. The note with it: single intravenous injection 4 mg/kg, female and male mice, observed 6 weeks. As for the experimental part:
Preliminary toxicity study was carried out. 100 μl of 150 μM of peptide was given as a single injection in vein tail to 4 female C3D2F1 and 4 male C57/B1 mice. The final concentration was 4 mg/kg. Mice were observed by a veterinarian the day after an injection and during the next 6 weeks.

Data set [4] relates to HeLa cells. The experiment in a line: Cytotoxicity assay (CellTiter 96 AQueous One colorimetric). The note with it: concentrations up to 16 μM, 24 hrs, physiological conditions. In kind it is cell-based, human. The procedure: (§1) The peptide's cytotoxicity and its ability to induce membrane leakage was investigated. […] Membrane leakage was tested by incubation of HeLa cells at various concentrations of peptide (up to 10 μM) at pH 7.4 and 6.5 for 1 hr, followed by the addition of cell-impermeable agents: Phalloidin-TRITC and nuclear-staining SYTOX-Orange. […] The uptake of Phalloidin-TRITC or SYTOX-Orange was 10 times less than the uptake in cells treated with triton, which used for cell membrane permeabilization.
Cytotoxicity was tested using a standard colorimetric assay according to an established protocol provided by Promega, Inc. HeLa cells were loaded in the wells of 96 well plates (20,000 cells per well), incubated for 24 hours in DMEM supplemented with 10% FBS, 100 units/ml penicillin, 0.1 mg/ml streptomycin, 2 mM glutamine in a humidified atmosphere of 5% CO2 and 95% air at 37° C. The growth medium was then replaced with the same medium but containing 1% of FBS and increasing amounts of pHLIP (0.5, 1, 2, 4, 8 and 16 μM). After 24 hours of incubation, the solution was replaced with DMEM and a colorimetric reagent (CellTiter 96 AQueous One Solution Assay) was added for 1 hour followed by measuring absorbance at 490 nm in the plate-reader. All samples were prepared in triplicate.

In data set [5] the test system is HeLa cells. The experiment in a line: Membrane leakage assay with cell-impermeable Phalloidin-TRITC and SYTOX-Orange. The note with it: peptide up to 10 μM, 1 hr, pH 6.5 or 7.4. In kind it is cell-based, human. As for the experimental part: as §1
HeLa cells were loaded in 96 well plates (2,000 cells per well), incubated for 24 hours in DMEM supplemented with 10% FBS, 100 units/ml penicillin, 0.1 mg/ml streptomycin, 2 mM glutamine in a humidified atmosphere of 5% CO2 and 95% air at 37° C. The growth medium was then replaced with PBS buffer containing 1 mM CaCl2 and 1 mM MgCl2 at pH7.4 or 6.5 and increasing amounts of the peptide (0.5, 2, 5 and 10 μM). After 1 hour, 2 μM of Phalloidin-TRITC and 0.5 μM of SYTOX-Orange (Molecular Probes) were added for 10 min and, then, washed with PBS buffer, pH7.4. The rhodamine fluorescence was measured at 580 nm with excitation at 544 nm by plate-reader. The cell membrane was subsequently disrupted by adding 0.5% Triton-100 and a new portion of the 2 μM of Phalloidin-TRITC and 0.5 μM of SYTOX-Orange followed by washing with PBS. The fluorescence signal was detected before and after washing, respectively. […]

In data set [6] the test system is HeLa cells. The note with it: literature report; cited from earlier work.
In a further data set the test system is actin filaments. Particulars: cited from earlier work.

With “TAMRA-o-o-CATAGTATAAGT-o-Cys-NH2 (all peptide nucleic acid (PNA), 5' {TAMRA}, 3' {Cys}) [PNA-TAMRA]”, in the data set on HeLa cells [1], the “translocation through the cell membrane” value is on record as “No translocation”.

Turning to Phalloidin-TRITC, the “fluorescent staining of actin filaments” value in the data set with HeLa cells [2] is reported as “did not give fluorescent staining of actin filaments”. In the case of `CCN1\C(=C/C=C/C=C/C2=[N+](CCCCCC(=O)O)c3ccc4c(S(=O)(=O)O)cc(S(=O)(=O)O)cc4c3C2(C)C)C(C)(C)c2c1ccc1c(S(=O)(=O)[O-])cc(S(=O)(=O)O)cc21` [Cy5.5], in the data set on Human tumor MDA-MB-231, the “ratio of (liver+kidney)/tumor, first statement” value worked out at 5.9 and the “ratio of (liver+kidney)/tumor, second statement” value is recorded as 2.6. On to dansyl, for which the penetration of cells entry in the data set with HeLa cells [3] is on record as “does not penetrate cells”. As to “AAEQNPIYWARYADWLFTTPLLLLDLALLVDADEGTCG [pHLIP]”, the “physiological and behavioral changes” value with mice was “No physiological and behavioral changes”. Also, the cell viability result with HeLa cells [4] was “does not affect cell viability”. Besides, in the data set with HeLa cells [5], the “uptake of Phalloidin-TRITC or SYTOX-Orange in peptide-treated cells” value is given as “no increase in uptake” and the “uptake of Phalloidin-TRITC or SYTOX-Orange relative to cells treated with triton” value was 10 times less. For `C/C1=C\[C@H](C)C[C@H](C)OC(=O)C[C@H](c2ccc(O)cc2)NC(=O)[C@@H](Cc2c(Br)[nH]c3ccccc23)N(C)C(=O)[C@H](C)NC(=O)[C@@H](C)C1` [Jasplakinolide], the “multinucleation of cells (reported)” value in the data set with HeLa cells [6] is given as “appearance of multinucleated cells”. Regarding `C[C@@H]1NC(=O)[C@H](C[C@@](C)(O)CO)NC(=O)[C@@H]2Cc3c([nH]c4ccccc34)SC[C@H](NC(=O)[C@@H]([C@H](C)O)NC1=O)C(=O)N1C[C@@H](O)C[C@H]1C(=O)N[C@@H](C)C(=O)N2` [Phalloidin] (cyclo(A[dT]C[cisHyp]A[Trp(2-yl)][Leu(4R-OH,5-OH)]); thioether 3-6), the “lowering of the critical concentration for actin polymerization” value in the data set on actin filaments is listed as “up to 30 fold”.
